Assay results: ChEMBL document CHEMBL1201862, “PubChem BioAssay data set” (2004)
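1) Cells in 96-well plates. 2) Compound, 48 h, 5 concentrations. 3) Linear interpolation between surrounding doses. 4) Unreached endpoint = highest concentration. At the GI50, growth is halved.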 Activity calls are given as the source filed them. Cut-off read from the data, not from the text of the source: active = GI50 up to about 1.1 µM and inactive = higher.

How the values were obtained:
Assay in all cases: NCI anticancer screen, dose series, 48 h
[1] = system: SW-620
[2] = system: M19-MEL
[3] = system: DU-145
[4] = system: DMS-114
[5] = system: M14
[6] = system: HCT-116
[7] = system: MDA-N
[8] = system: NCI-H226
[9] = system: HOP-92
[10] = system: HOP-18
[11] = system: RXF 631
[12] = system: MCF7
[13] = system: RXF 393
[14] = system: EKVX
[15] = system: SNB-78
[16] = system: UACC-257
[17] = system: HL-60
[18] = system: HT-29
[19] = system: TK-10
[20] = system: NCI/ADR-RES
[21] = system: IGROV-1
[22] = system: LXFL 529
[23] = system: HCT-15
[24] = system: UO-31
[25] = system: MDA-MB-231
[26] = system: OVCAR-8
[27] = system: HCC 2998
[28] = system: NCI-H460
[29] = system: OVCAR-5
[30] = system: DMS-273
[31] = system: Hs-578T
[32] = system: 786-0
[33] = system: MOLT-4
[34] = system: SK-MEL-5
[35] = system: KM-20L2
[36] = system: T47D
[37] = system: SF-539
[38] = system: BT-549
[39] = system: KM12
[40] = system: OVCAR-4
[41] = system: SF-295
[42] = system: K562
[43] = system: COLO 205
[44] = system: HOP-62
[45] = system: CAKI-1
[46] = system: U-251
[47] = system: SN12C
[48] = system: A549
[49] = system: UACC-62
[50] = system: CCRF-CEM
[51] = system: NCI-H23
[52] = system: SF-268
[53] = system: XF498
[54] = system: SNB-75
[55] = system: SK-OV-3
[56] = system: LOX IMVI
[57] = system: PC-3
[58] = system: SNB-19
[59] = system: SK-MEL-2
[60] = system: ACHN
[61] = system: RPMI-8226
[62] = system: SK-MEL-28
[63] = system: Malme-3M
[64] = system: MDA-MB-435
[65] = system: A498
[66] = system: DLD-1
[67] = system: NCI-H522
[68] = system: OVCAR-3
[69] = system: SR

C/C(=N\NC(=S)N1CCN(c2ccccn2)CC1)c1nccs1
GI50 [1]: 0.279 µM (active)
GI50 [2]: 0.574 µM (active)
GI50 [3]: 290 nM (active)
GI50 [4]: 0.01 µM (active)
GI50 [5]: 0.16 µM (active)
GI50 [6]: < 0.0441 µM (active)
GI50 [7]: 431 nM (active)
GI50 [8]: 955 nM (active)
GI50 [9]: 2.26 µM (inactive)
GI50 [10]: 2.92 µM (inactive)
GI50 [11]: 1.05 µM (active)
GI50 [12]: 6.65 nM (active)
GI50 [13]: 3.72 µM (inactive)
GI50 [14]: 0.12 µM (active)
GI50 [15]: 6.76 µM (inactive)
GI50 [16]: 0.214 µM (active)
GI50 [17]: 0.01 µM (active)
GI50 [18]: 0.335 µM (active)
GI50 [19]: 1.91 µM (inactive)
GI50 [20]: 33.9 nM (active)
GI50 [21]: 0.228 µM (active)
GI50 [22]: 0.01 µM (active)
GI50 [23]: 71 nM
GI50 [24]: 0.516 µM (active)
GI50 [25]: 22 nM (active)
GI50 [26]: 0.258 µM (active)
GI50 [27]: 0.675 µM (active)
GI50 [28]: 0.104 µM (active)
GI50 [29]: 0.867 µM (active)
GI50 [30]: 0.351 µM (active)
GI50 [31]: 2.8 µM (inactive)
GI50 [32]: 0.305 µM (active)
GI50 [33]: < 0.0225 µM (active)
GI50 [34]: 0.219 µM (active)
GI50 [35]: < 0.0294 µM (active)
GI50 [36]: 39.1 nM (active)
GI50 [37]: 0.524 µM (active)
GI50 [38]: 2.02 µM (inactive)
GI50 [39]: 0.485 µM (active)
GI50 [40]: 1.03 µM (active)
GI50 [41]: 0.822 µM (active)
GI50 [42]: 0.01 µM (active)
GI50 [43]: < 0.0248 µM (active)
GI50 [44]: 1.19 µM (inactive)
GI50 [45]: 2.42 µM (inactive)
GI50 [46]: 0.405 µM (active)
GI50 [47]: 1.2 µM (inactive)
GI50 [48]: 0.908 µM (active)
GI50 [49]: 0.122 µM (active)
GI50 [50]: 10 nM (active)
GI50 [51]: 0.438 µM (active)
GI50 [52]: 0.794 µM (active)
GI50 [53]: 13 µM (inactive)
GI50 [54]: 2.82 µM (inactive)
GI50 [55]: 1.61 µM (inactive)
GI50 [56]: 0.405 µM (active)
GI50 [57]: 54.8 nM (active)
GI50 [58]: 1.58 µM (inactive)
GI50 [59]: 1.83 µM (inactive)
GI50 [60]: 0.355 µM (active)
GI50 [61]: 0.01 µM (active)
GI50 [62]: 0.792 µM (active)
GI50 [63]: 3.82 µM (inactive)
GI50 [64]: 521 nM (active)
GI50 [65]: 1.88 µM (inactive)

Cn1c(=O)c(C(c2ccccc2)c2c(O)c3ccccc3n(C)c2=O)c(O)c2ccccc21
GI50 [1]: > 100 µM (inactive)
GI50 [2]: > 100 µM (inactive)
GI50 [4]: > 100 µM (inactive)
GI50 [5]: > 100 µM (inactive)
GI50 [6]: > 100 µM (inactive)
GI50 [8]: 28.3 nM (active)
GI50 [9]: > 100 µM (inactive)
GI50 [10]: > 100 µM (inactive)
GI50 [11]: > 100 µM (inactive)
GI50 [13]: > 100 µM (inactive)
GI50 [14]: > 100 µM (inactive)
GI50 [15]: > 100 µM (inactive)
GI50 [16]: > 100 µM (inactive)
GI50 [17]: 32.4 µM (inactive)
GI50 [18]: > 100 µM (inactive)
GI50 [19]: > 100 µM (inactive)
GI50 [21]: > 100 µM (inactive)
GI50 [22]: > 100 µM (inactive)
GI50 [23]: > 10000 nM
GI50 [24]: > 100 µM (inactive)
GI50 [66]: 88.7 µM (inactive)
GI50 [26]: > 100 µM (inactive)
GI50 [67]: > 100 µM (inactive)
GI50 [27]: > 100 µM (inactive)
GI50 [28]: > 100 µM (inactive)
GI50 [29]: 23.2 µM (inactive)
GI50 [30]: > 100 µM (inactive)
GI50 [32]: > 100 µM (inactive)
GI50 [33]: 45.3 µM (inactive)
GI50 [34]: > 100 µM (inactive)
GI50 [35]: > 100 µM (inactive)
GI50 [37]: > 100 µM (inactive)
GI50 [39]: > 100 µM (inactive)
GI50 [40]: 53.6 µM (inactive)
GI50 [41]: > 100 µM (inactive)
GI50 [42]: > 100 µM (inactive)
GI50 [43]: > 100 µM (inactive)
GI50 [45]: > 100 µM (inactive)
GI50 [46]: > 100 µM (inactive)
GI50 [47]: > 100 µM (inactive)
GI50 [48]: > 100 µM (inactive)
GI50 [49]: > 100 µM (inactive)
GI50 [51]: > 100 µM (inactive)
GI50 [52]: > 100 µM (inactive)
GI50 [53]: > 100 µM (inactive)
GI50 [68]: > 100 µM (inactive)
GI50 [54]: 38.1 µM (inactive)
GI50 [55]: > 100 µM (inactive)
GI50 [56]: > 100 µM (inactive)
GI50 [58]: > 100 µM (inactive)
GI50 [59]: > 100 µM (inactive)
GI50 [60]: > 100 µM (inactive)
GI50 [69]: 45.5 µM (inactive)
GI50 [61]: > 100 µM (inactive)
GI50 [62]: > 100 µM (inactive)
GI50 [63]: > 100 µM (inactive)
